Assay results as given in patent US8648011B2, “Herbicidal compositions” (Syngenta Crop Protection LLC, priority 2009, dated 2014).

Test system: maize
Test: Glass house test of safening effect on herbicide A, post-emergence application, phytotoxicity in maize
Assay type: in vivo
Settings: for Phytotoxicity (%): post-emergence, maize, 24 DAA
Description: A glass house test was carried out to determine the safening effect of numerous safeners on a compound of Formula (I) with respect to maize. Various herbicidal compositions were applied post-emergence and the observed phytotoxicity in maize assessed 24 days after application (24DAA). A=2-chloro-5-[3,6-dihydro-3-methyl-2,6-dioxo-4-(trifluoromethyl)-1(2H)-pyrimidinyl]-4-fluoro-N-[[methyl(1-methylethyl)amino]sulfonyl]benzamide; B=1-[4-(N-2-methoxybenzoylsulfamoyl)phenyl]-3-methylurea.

[1] = safener 100 g/ha applied with herbicide A 100 g/ha
[2] = safener 250 g/ha applied with herbicide A 250 g/ha

Row | SMILES | Phytotoxicity (%) (herbicide A 100 g/ha, no safener) | Phytotoxicity (%) (herbicide A 250 g/ha, no safener) | safening of the 3-phenyluracil herbicide A in maize (in vivo) | Phytotoxicity (%) [1] | Phytotoxicity (%) [2]
1 | CC(C)N(C)S(=O)(=O)NC(=O)c1cc(-n2c(=O)cc(C(F)(F)F)n(C)c2=O)c(F)cc1Cl [A, 2-chloro-5-[3,6-dihydro-3-methyl-2,6-dioxo-4-(trifluoromethyl)-1(2H)-pyrimidinyl]-4-fluoro-N-[[methyl(1-methylethyl)amino]sulfonyl]benzamide] | 25% | 35% | – | – | –
2 | CNC(=O)Nc1ccc(S(=O)(=O)NC(=O)c2ccccc2OC)cc1 [B, 1-[4-(N-2-methoxybenzoylsulfamoyl)phenyl]-3-methylurea] | – | – | surprisingly good safening | – | –
3 | O=C(O)COc1ccc(Cl)c2cccnc12 [Cloquintocet] | – | – | – | 25% | 35%
4 | O=C(O)C1=NOC(c2ccccc2)(c2ccccc2)C1 [Isoxadifen] | – | – | – | 28% | 30%
5 | CC1(C(=O)O)CC(C(=O)O)=NN1c1ccc(Cl)cc1Cl (stereo not drawn) [Mefenpyr] | – | – | – | 30% | 40%
